Key:
Test in all cases: relative viability (nuclei count vs DMSO), 5 days (fraction); higher = more cells survive
Dinaciclib = compound: CCc1cnn2c(NCc3ccc[n+]([O-])c3)cc(N3CCCC[C@H]3CCO)nc12 [Dinaciclib]
Summary of the method: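 Lung cancer cell lines were seeded into 1536-well plates, kept overnight at 37 °C and pinned with five library-drug doses (not always all listed) spaced by √10. After 5 days, nuclei were Hoechst-stained, imaged at 4× and counted with MetaXpress. Viability is treated-well nuclei over vehicle-well nuclei, taken as a median across plates. Plates needed control CV below 25% and at least one doubling.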

Dinaciclib + Alpelisib = compound: CCc1cnn2c(NCc3ccc[n+]([O-])c3)cc(N3CCCC[C@H]3CCO)nc12 [Dinaciclib] + Cc1nc(NC(=O)N2CCC[C@H]2C(N)=O)sc1-c1ccnc(C(C)(C)C(F)(F)F)c1 [Alpelisib] (partner 2 µM)
Summary of the method: (§1)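 For relative viability, nuclei counts in treated wells were divided by those in vehicle wells. Lung cancer cell lines had been pin-tool dosed in 1536-well plates the day after seeding and cultured for 5 days, then fixed and stained in one step (final 0.05% Triton X-100, 1% formaldehyde, 1 ug/ml Hoechst) and imaged at 4×. Doses were one drug alone or a fixed anchor-drug dose plus five library-drug doses (not always all listed) in √10 steps, and values are duplicate-plate medians.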

Dinaciclib + Olaparib = compound: CCc1cnn2c(NCc3ccc[n+]([O-])c3)cc(N3CCCC[C@H]3CCO)nc12 [Dinaciclib] + O=C(c1cc(Cc2n[nH]c(=O)c3ccccc23)ccc1F)N1CCN(C(=O)C2CC2)CC1 [Olaparib] (partner 8 µM)
Summary of the method: as §1

Dinaciclib + Lapatinib = compound: CCc1cnn2c(NCc3ccc[n+]([O-])c3)cc(N3CCCC[C@H]3CCO)nc12 [Dinaciclib] + CS(=O)(=O)CCNCc1ccc(-c2ccc3ncnc(Nc4ccc(OCc5cccc(F)c5)c(Cl)c4)c3c2)o1 [Lapatinib] (partner 2 µM)
Summary of the method: as §1

Dinaciclib + Pictilisib = compound: CCc1cnn2c(NCc3ccc[n+]([O-])c3)cc(N3CCCC[C@H]3CCO)nc12 [Dinaciclib] + CS(=O)(=O)N1CCN(Cc2cc3nc(-c4cccc5[nH]ncc45)nc(N4CCOCC4)c3s2)CC1 [Pictilisib] (partner 1 µM)
Summary of the method: as §1

Dinaciclib + Linsitinib = compound: CCc1cnn2c(NCc3ccc[n+]([O-])c3)cc(N3CCCC[C@H]3CCO)nc12 [Dinaciclib] + C[C@]1(O)C[C@@H](c2nc(-c3ccc4ccc(-c5ccccc5)nc4c3)c3c(N)nccn32)C1 [Linsitinib] (partner 1 µM)
Summary of the method: as §1

Dinaciclib + Foretinib = compound: CCc1cnn2c(NCc3ccc[n+]([O-])c3)cc(N3CCCC[C@H]3CCO)nc12 [Dinaciclib] + COc1cc2c(Oc3ccc(NC(=O)C4(C(=O)Nc5ccc(F)cc5)CC4)cc3F)ccnc2cc1OCCCN1CCOCC1 [Foretinib] (partner 0.25 µM)
Summary of the method: as §1

Dinaciclib + Crizotinib = compound: CCc1cnn2c(NCc3ccc[n+]([O-])c3)cc(N3CCCC[C@H]3CCO)nc12 [Dinaciclib] + C[C@@H](Oc1cc(-c2cnn(C3CCNCC3)c2)cnc1N)c1c(Cl)ccc(F)c1Cl [Crizotinib] (partner 1 µM)
Summary of the method: as §1

Dinaciclib + Navitoclax = compound: CCc1cnn2c(NCc3ccc[n+]([O-])c3)cc(N3CCCC[C@H]3CCO)nc12 [Dinaciclib] + CC1(C)CCC(c2ccc(Cl)cc2)=C(CN2CCN(c3ccc(C(=O)NS(=O)(=O)c4ccc(N[C@H](CCN5CCOCC5)CSc5ccccc5)c(S(=O)(=O)C(F)(F)F)c4)cc3)CC2)C1 [Navitoclax] (partner 0.5 µM)
Summary of the method: as §1

Dinaciclib + Bortezomib = compound: CCc1cnn2c(NCc3ccc[n+]([O-])c3)cc(N3CCCC[C@H]3CCO)nc12 [Dinaciclib] + CC(C)C[C@H](NC(=O)[C@H](Cc1ccccc1)NC(=O)c1cnccn1)B(O)O [Bortezomib] (partner 0.002 µM)
Summary of the method: as §1

Question: Calu-6 was tested. Which relative viability (Dinaciclib; 0.009487 µM) did it give?
Answer: Its relative viability is 0.969.

Question: And the relative viability (Dinaciclib; 0.03 µM)?
Answer: The relative viability was 0.145.

Question: What about the relative viability (Dinaciclib; 0.09487 µM) of the same cell line?
Answer: Its relative viability is 0.117.

Question: And the relative viability (Dinaciclib; 0.3 µM)?
Answer: Its relative viability is 0.131.

Question: And the relative viability (Dinaciclib + Alpelisib; first compound 0.009487 µM)?
Answer: Its relative viability is 0.498.

Question: What about the relative viability (Dinaciclib + Alpelisib; first compound 0.03 µM) of the same cell line?
Answer: Its relative viability is 0.133.

Question: And the relative viability (Dinaciclib + Alpelisib; first compound 0.09487 µM)?
Answer: Its relative viability is 0.118.

Question: And the relative viability (Dinaciclib + Alpelisib; first compound 0.3 µM)?
Answer: The relative viability was 0.128.

Question: What about the relative viability (Dinaciclib + Olaparib; first compound 0.009487 µM) of the same cell line?
Answer: The relative viability was 0.527.

Question: And the relative viability (Dinaciclib + Olaparib; first compound 0.03 µM)?
Answer: The relative viability was 0.111.

Question: And the relative viability (Dinaciclib + Olaparib; first compound 0.09487 µM)?
Answer: The relative viability was 0.1.

Question: What about the relative viability (Dinaciclib + Olaparib; first compound 0.3 µM) of the same cell line?
Answer: Its relative viability is 0.109.

Question: And the relative viability (Dinaciclib + Lapatinib; first compound 0.009487 µM)?
Answer: The relative viability was 0.914.

Question: And the relative viability (Dinaciclib + Lapatinib; first compound 0.03 µM)?
Answer: Its relative viability is 0.112.

Question: And the relative viability (Dinaciclib + Lapatinib; first compound 0.09487 µM)?
Answer: Its relative viability is 0.13.

Question: What about the relative viability (Dinaciclib + Lapatinib; first compound 0.3 µM) of the same cell line?
Answer: The relative viability was 0.134.

Question: What about the relative viability (Dinaciclib + Pictilisib; first compound 0.009487 µM) of the same cell line?
Answer: Its relative viability is 0.523.

Question: And the relative viability (Dinaciclib + Pictilisib; first compound 0.03 µM)?
Answer: The relative viability was 0.113.

Question: And the relative viability (Dinaciclib + Pictilisib; first compound 0.09487 µM)?
Answer: Its relative viability is 0.116.

Question: And the relative viability (Dinaciclib + Pictilisib; first compound 0.3 µM)?
Answer: Its relative viability is 0.114.

Question: And the relative viability (Dinaciclib + Linsitinib; first compound 0.009487 µM)?
Answer: Its relative viability is 1.02.

Question: What about the relative viability (Dinaciclib + Linsitinib; first compound 0.03 µM) of the same cell line?
Answer: Its relative viability is 0.0954.

Question: What about the relative viability (Dinaciclib + Linsitinib; first compound 0.09487 µM) of the same cell line?
Answer: Its relative viability is 0.0924.

Question: And the relative viability (Dinaciclib + Linsitinib; first compound 0.3 µM)?
Answer: The relative viability was 0.103.

Question: And the relative viability (Dinaciclib + Foretinib; first compound 0.009487 µM)?
Answer: Its relative viability is 0.757.

Question: What about the relative viability (Dinaciclib + Foretinib; first compound 0.03 µM) of the same cell line?
Answer: Its relative viability is 0.0769.

Question: What about the relative viability (Dinaciclib + Foretinib; first compound 0.09487 µM) of the same cell line?
Answer: The relative viability was 0.0773.

Question: And the relative viability (Dinaciclib + Foretinib; first compound 0.3 µM)?
Answer: The relative viability was 0.0929.

Question: And the relative viability (Dinaciclib + Crizotinib; first compound 0.009487 µM)?
Answer: Its relative viability is 0.619.

Question: And the relative viability (Dinaciclib + Crizotinib; first compound 0.03 µM)?
Answer: The relative viability was 0.208.

Question: And the relative viability (Dinaciclib + Crizotinib; first compound 0.09487 µM)?
Answer: The relative viability was 0.0928.

Question: What about the relative viability (Dinaciclib + Crizotinib; first compound 0.3 µM) of the same cell line?
Answer: The relative viability was 0.126.

Question: What about the relative viability (Dinaciclib + Navitoclax; first compound 0.009487 µM) of the same cell line?
Answer: The relative viability was 0.524.

Question: And the relative viability (Dinaciclib + Navitoclax; first compound 0.03 µM)?
Answer: Its relative viability is 0.0805.

Question: And the relative viability (Dinaciclib + Navitoclax; first compound 0.09487 µM)?
Answer: Its relative viability is 0.0782.

Question: What about the relative viability (Dinaciclib + Navitoclax; first compound 0.3 µM) of the same cell line?
Answer: Its relative viability is 0.0765.

Question: And the relative viability (Dinaciclib + Bortezomib; first compound 0.009487 µM)?
Answer: The relative viability was 0.54.

Question: What about the relative viability (Dinaciclib + Bortezomib; first compound 0.03 µM) of the same cell line?
Answer: Its relative viability is 0.128.

Question: What about the relative viability (Dinaciclib + Bortezomib; first compound 0.09487 µM) of the same cell line?
Answer: Its relative viability is 0.133.

Question: What about the relative viability (Dinaciclib + Bortezomib; first compound 0.3 µM) of the same cell line?
Answer: Its relative viability is 0.123.

Question: What does the source list for EBC-1?
Answer: relative viability (Dinaciclib; 0.009487 µM): 0.875; relative viability (Dinaciclib; 0.03 µM): 0.149; relative viability (Dinaciclib; 0.09487 µM): 0.108; relative viability (Dinaciclib; 0.3 µM): 0.141; relative viability (Dinaciclib + Alpelisib; first compound 0.009487 µM): 0.501; relative viability (Dinaciclib + Alpelisib; first compound 0.03 µM): 0.138; relative viability (Dinaciclib + Alpelisib; first compound 0.09487 µM): 0.123; relative viability (Dinaciclib + Alpelisib; first compound 0.3 µM): 0.141; relative viability (Dinaciclib + Olaparib; first compound 0.009487 µM): 0.737; relative viability (Dinaciclib + Olaparib; first compound 0.03 µM): 0.132; relative viability (Dinaciclib + Olaparib; first compound 0.09487 µM): 0.126; relative viability (Dinaciclib + Olaparib; first compound 0.3 µM): 0.106; relative viability (Dinaciclib + Lapatinib; first compound 0.009487 µM): 0.21; relative viability (Dinaciclib + Lapatinib; first compound 0.03 µM): 0.16; relative viability (Dinaciclib + Lapatinib; first compound 0.09487 µM): 0.168; relative viability (Dinaciclib + Lapatinib; first compound 0.3 µM): 0.157; relative viability (Dinaciclib + Pictilisib; first compound 0.009487 µM): 0.283; relative viability (Dinaciclib + Pictilisib; first compound 0.03 µM): 0.117; relative viability (Dinaciclib + Pictilisib; first compound 0.09487 µM): 0.109; relative viability (Dinaciclib + Pictilisib; first compound 0.3 µM): 0.142; relative viability (Dinaciclib + Linsitinib; first compound 0.009487 µM): 0.977; relative viability (Dinaciclib + Linsitinib; first compound 0.03 µM): 0.228; relative viability (Dinaciclib + Linsitinib; first compound 0.09487 µM): 0.101; relative viability (Dinaciclib + Linsitinib; first compound 0.3 µM): 0.127; relative viability (Dinaciclib + Foretinib; first compound 0.009487 µM): 0.0927; relative viability (Dinaciclib + Foretinib; first compound 0.03 µM): 0.0992; relative viability (Dinaciclib + Foretinib; first compound 0.09487 µM): 0.106; relative viability (Dinaciclib + Foretinib; first compound 0.3 µM): 0.106; relative viability (Dinaciclib + Crizotinib; first compound 0.009487 µM): 0.198; relative viability (Dinaciclib + Crizotinib; first compound 0.03 µM): 0.159; relative viability (Dinaciclib + Crizotinib; first compound 0.09487 µM): 0.151; relative viability (Dinaciclib + Crizotinib; first compound 0.3 µM): 0.136; relative viability (Dinaciclib + Navitoclax; first compound 0.009487 µM): 0.307; relative viability (Dinaciclib + Navitoclax; first compound 0.03 µM): 0.138; relative viability (Dinaciclib + Navitoclax; first compound 0.09487 µM): 0.136; relative viability (Dinaciclib + Navitoclax; first compound 0.3 µM): 0.163; relative viability (Dinaciclib + Bortezomib; first compound 0.009487 µM): 0.452; relative viability (Dinaciclib + Bortezomib; first compound 0.03 µM): 0.133; relative viability (Dinaciclib + Bortezomib; first compound 0.09487 µM): 0.152; relative viability (Dinaciclib + Bortezomib; first compound 0.3 µM): 0.146

Reference: the supplement of paper PMC10307832
